According to patent publication US11607446B2, “Personalized immunotherapy against several neuronal and brain tumors” (Immatics Biotechnologies GmbH, priority 2013, dated 2023):

Legend:
CD8+ T cells [1] = test: In vitro immunogenicity of HLA-A*24 class I peptides: in vitro T-cell priming with aAPCs loaded with peptide/MHC complexes and anti-CD28 antibody, pMHC multimer readout; assay type: cell-based, human; settings: given as a class symbol; for Donors: share of positive donors in the in vitro immunogenicity experiments; for Wells: share of positive wells in the in vitro immunogenicity experiments
Method: In order to obtain information regarding the immunogenicity of the TUMAPs of the present invention, we performed investigations using an in vitro T-cell priming assay based on repeated stimulations of CD8+ T cells with artificial antigen presenting cells (aAPCs) loaded with peptide/MHC complexes and anti-CD28 antibody.
Isolated CD8+ lymphocytes or PBMCs were incubated until use in T-cell medium (TCM) consisting of RPMI-Glutamax (Invitrogen, Karlsruhe, Germany) supplemented with 10% heat inactivated human AB serum (PAN-Biotech, Aidenbach, Germany), 100 U/ml Penicillin/100 μg/ml Streptomycin (Cambrex, Cologne, Germany), 1 mM sodium pyruvate (CC Pro, Oberdorla, Germany), 20 μg/ml Gentamycin (Cambrex). 2.5 ng/ml IL-7 (PromoCell, Heidelberg, Germany) and 10 U/ml IL-2 (Novartis Pharma, Nurnberg, Germany) were also added to the TCM at this step. Generation of pMHC/anti-CD28 coated beads, T-cell stimulations and readout was performed in a highly defined in vitro system using four different pMHC molecules per stimulation condition and 8 different pMHC molecules per readout condition. All pMHC complexes used for aAPC loading and cytometric readout were derived from UV-induced MHC ligand exchange with minor modifications. In order to determine the amount of pMHC monomer obtained by exchange we performed streptavidin-based sandwich ELISAs according to (Rodenko et al., 2006). The purified co-stimulatory mouse IgG2a anti human CD28 Ab 9.3 (Jung et al., 1987) was chemically biotinylated using Sulfo-N-hydroxysuccinimidobiotin as recommended by the manufacturer (Perbio, Bonn, Germany). Beads used were 5.6 μm diameter streptavidin coated polystyrene particles (Bangs Laboratories, Illinois, USA).
800.000 beads/200 μl were coated in 96-well plates in the presence of 4×12.5 ng different biotin-pMHC, washed and 600 ng biotin anti-CD28 were added subsequently in a volume of 200 μl. Stimulations were initiated in 96-well plates by co-incubating 1×10^6 CD8+ T cells with 2×10^5 washed coated beads in 200 μl TCM supplemented with 5 ng/ml IL-12 (PromoCell) for 3-4 days at 37° C. Half of the medium was then exchanged by fresh TCM supplemented with 80 U/ml IL-2 and incubating was continued for 3-4 days at 37° C. This stimulation cycle was performed for a total of three times, with 12 individual wells per condition For the pMHC multimer readout using 8 different pMHC molecules per condition, a two-dimensional combinatorial coding approach was used as previously described (Andersen et al., 2012) with minor modifications encompassing coupling to 5 different fluorochromes. Finally, multimeric analyses were performed by staining the cells with Live/dead near IR dye (Invitrogen, Karlsruhe, Germany), CD8-FITC antibody clone SK1 (BD, Heidelberg, Germany) and fluorescent pMHC multimers. For analysis, a BD LSRII SORP cytometer equipped with appropriate lasers and filters was used. Peptide specific cells were calculated as percentage of total CD8+ cells. Evaluation of multimeric analysis was done using the FlowJo software (Tree Star, Oregon, USA). In vitro priming of specific multimer+ CD8+ lymphocytes was detected by comparison to irrelevant control stimulations.
Exemplary flow cytometry results after TUMAP-specific multimer staining for two peptides of the invention are shown in FIG. 4 together with corresponding negative controls.

CD8+ T cells [2] = test: In vitro immunogenicity of HLA-A*02 class I peptides: in vitro T-cell priming with aAPCs loaded with peptide/MHC complexes and anti-CD28 antibody, pMHC multimer readout; assay type: cell-based, human; settings: HLA-A*02 peptides

Substance	Donors (CD8+ T cells [1])	Wells (CD8+ T cells [1])	Donors (CD8+ T cells [2]; healthy donors, specific multimer+ CD8+ T-cell line after in vitro stimulation)	Wells (CD8+ T cells [2]; in vitro stimulated wells of healthy donors' CD8+ T cells, specific multimer+ readout)
IYGGHHAGF (listed as Homo sapiens) [OLIG2-001]	++ (20%-49 % = ++)	+ (<20% = +)		
YYPGVILGF (listed as Homo sapiens) [TMEM255A-001]	++ (20%-49 % = ++)	+ (<20% = +)		
RYIPLIVDI (listed as Homo sapiens) [ARHGAP21-001]	++ (20%-49 % = ++)	+ (<20% = +)		
VYQVLQEHL (listed as Homo sapiens) [BMP7-001]	++ (20%-49 % = ++)	+ (<20% = +)		
AFSPDSHYLLF (listed as Homo sapiens) [ITGA7-001]	++ (20%-49 % = ++)	+ (<20% = +)		
LYIYPQSLNF (listed as Homo sapiens) [DOCK7-002]	+++ (50%-70% = +++)	+ (<20% = +)		
YYLDKSVSI (listed as Homo sapiens) [SCARA3-002]	++ (20%-49 % = ++)	+ (<20% = +)		
HYKPTPLYF (listed as Homo sapiens) [SMC4-001]	++ (20%-49 % = ++)	+ (<20% = +)		
EYMKALGVGF (listed as Homo sapiens) [FABP7-002]	++ (20%-49 % = ++)	+ (<20% = +)		
PYLDKFFAL (listed as Homo sapiens) [DOCK7-003]	++ (20%-49 % = ++)	+ (<20% = +)		
PYNHQHEYF (listed as Homo sapiens) [FADS2-002]	++++ (>70% = ++++)	+ (<20% = +)		
TYTSYLDKF (listed as Homo sapiens) [MAPK6-001]	++ (20%-49 % = ++)	+ (<20% = +)		
VYNLTQEFF (listed as Homo sapiens) [SMOX-001]	++ (20%-49 % = ++)	+ (<20% = +)		
YYTVRNFTL (listed as Homo sapiens) [PTP-014]	++ (20%-49 % = ++)	+ (<20% = +)		
NYQDTIGRL (listed as Homo sapiens) [VIM-002]	++ (20%-49 % = ++)	+ (<20% = +)		
TYVDSSHTI (listed as Homo sapiens) [VCAN-003]	+++ (50%-70% = +++)	+ (<20% = +)		
ZNFS3-001 (RYLPSSVFL; listed as Homo sapiens)	+++ (50%-70% = +++)	++ (20%-49 % = ++)		
RYQESLGNTVF (listed as Homo sapiens) [PJA2-001]	++ (20%-49 % = ++)	+ (<20% = +)		
AYVLRLETL (listed as Homo sapiens) [PNMA2-001]	++ (20%-49 % = ++)	+ (<20% = +)		
RYGPQFTL (listed as Homo sapiens) [PCD-002]	++ (20%-49 % = ++)	+ (<20% = +)		
AYLIDIKTI (listed as Homo sapiens) [IFT17-001]	+++ (50%-70% = +++)	+ (<20% = +)		
KYFSFPGEL (listed as Homo sapiens) [SLC-002]	++ (20%-49 % = ++)	+ (<20% = +)		
KYNEFSVSL (listed as Homo sapiens) [HEATR1-001]	+++ (50%-70% = +++)	+ (<20% = +)		
QWAPILANF (listed as Homo sapiens) [NKA-001]	++ (20%-49 % = ++)	+ (<20% = +)		
NYTSLLVTW (listed as Homo sapiens) [PTP-018]	++++ (>70% = ++++)	+ (<20% = +)		
TYNYAVLKF (listed as Homo sapiens) [GPM-002]	+++ (50%-70% = +++)	+ (<20% = +)		
GLMEKIKEL (listed as Homo sapiens) [CPT1C-001]			++ (20%-49 % = ++)	+ (<20% = +)
